The text below walks through data of patent US20090318552A1, “Pharmaceutical composition comprising shikonin derivatives from lithospermum erythrorhizo dor treating or preventing diabetes mellitus and the use thereof” (priority 2006, published 2009).

“Also recorded” adds a separate entry of the source.

In this experiment the target is T1, KATP ion channels of beta cells in the pancreas (HIT-T15 cells) (UniProt A0A1U7QRT4+Q09427).
T1 construct: endogenous in cells; host or cells: HIT-T15 cells
T1 sequence (Q09427 whole entry): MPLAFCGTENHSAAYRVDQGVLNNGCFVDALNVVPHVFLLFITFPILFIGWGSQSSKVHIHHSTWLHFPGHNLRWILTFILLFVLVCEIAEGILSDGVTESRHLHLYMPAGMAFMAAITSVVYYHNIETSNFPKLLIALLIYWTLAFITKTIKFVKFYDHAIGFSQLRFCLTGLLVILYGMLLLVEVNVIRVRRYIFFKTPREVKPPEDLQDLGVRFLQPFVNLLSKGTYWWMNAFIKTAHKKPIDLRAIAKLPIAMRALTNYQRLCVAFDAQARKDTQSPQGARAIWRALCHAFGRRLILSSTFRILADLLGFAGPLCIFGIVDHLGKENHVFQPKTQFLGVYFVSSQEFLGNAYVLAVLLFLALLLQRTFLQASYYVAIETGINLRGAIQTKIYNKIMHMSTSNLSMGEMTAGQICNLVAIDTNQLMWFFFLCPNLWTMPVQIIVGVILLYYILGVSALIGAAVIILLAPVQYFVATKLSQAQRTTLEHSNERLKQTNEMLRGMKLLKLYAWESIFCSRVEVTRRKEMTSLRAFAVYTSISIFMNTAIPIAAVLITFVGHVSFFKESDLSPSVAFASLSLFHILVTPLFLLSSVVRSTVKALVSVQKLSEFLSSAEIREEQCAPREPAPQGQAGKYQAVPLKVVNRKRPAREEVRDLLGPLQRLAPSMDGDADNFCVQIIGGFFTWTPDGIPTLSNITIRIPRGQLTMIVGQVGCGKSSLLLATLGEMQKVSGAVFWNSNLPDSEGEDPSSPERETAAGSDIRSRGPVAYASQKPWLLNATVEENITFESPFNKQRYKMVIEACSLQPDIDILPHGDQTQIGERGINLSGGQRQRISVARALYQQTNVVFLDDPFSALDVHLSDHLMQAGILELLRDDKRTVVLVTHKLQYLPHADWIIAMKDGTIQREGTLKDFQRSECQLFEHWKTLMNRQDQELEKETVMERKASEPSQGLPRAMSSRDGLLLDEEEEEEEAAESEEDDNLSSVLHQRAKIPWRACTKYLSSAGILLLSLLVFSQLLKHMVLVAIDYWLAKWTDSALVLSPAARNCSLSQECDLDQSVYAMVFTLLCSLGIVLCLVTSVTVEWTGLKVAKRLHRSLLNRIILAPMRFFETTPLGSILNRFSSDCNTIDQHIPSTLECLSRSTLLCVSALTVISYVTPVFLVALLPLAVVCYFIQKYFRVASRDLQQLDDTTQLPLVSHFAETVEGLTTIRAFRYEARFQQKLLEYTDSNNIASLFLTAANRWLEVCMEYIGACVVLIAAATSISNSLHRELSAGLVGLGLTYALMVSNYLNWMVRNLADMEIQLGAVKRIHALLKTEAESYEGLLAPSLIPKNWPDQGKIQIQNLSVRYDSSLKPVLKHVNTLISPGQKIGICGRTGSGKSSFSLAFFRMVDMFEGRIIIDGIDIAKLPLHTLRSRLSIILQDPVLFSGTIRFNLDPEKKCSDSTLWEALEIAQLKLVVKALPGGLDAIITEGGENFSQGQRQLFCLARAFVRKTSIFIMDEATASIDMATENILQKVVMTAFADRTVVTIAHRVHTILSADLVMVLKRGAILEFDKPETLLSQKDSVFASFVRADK
T1 sequence (A0A1U7QRT4 1-390): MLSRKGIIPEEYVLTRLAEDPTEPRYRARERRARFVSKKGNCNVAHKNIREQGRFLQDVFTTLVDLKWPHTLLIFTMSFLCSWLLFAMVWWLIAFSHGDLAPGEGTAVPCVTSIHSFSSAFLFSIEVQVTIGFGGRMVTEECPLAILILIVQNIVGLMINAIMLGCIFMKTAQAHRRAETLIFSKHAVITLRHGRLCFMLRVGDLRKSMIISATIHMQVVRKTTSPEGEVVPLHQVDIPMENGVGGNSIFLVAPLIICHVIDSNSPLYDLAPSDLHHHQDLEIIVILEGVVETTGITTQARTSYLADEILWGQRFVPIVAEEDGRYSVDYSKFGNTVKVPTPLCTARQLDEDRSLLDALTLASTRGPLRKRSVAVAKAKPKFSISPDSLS
Put plainly: Electro-physiological experiment: whole cell patch clamp recording of KATP current. In kind it is cell-based. The conditions noted are these: single compounds vs GBC; FIG. 5. How it is done: HIT-T15 cells used for the experimental examples below were cultivated in an RPMI 1640 culture medium containing horse serum (10%, v/v), fetal bovine serum (2.5% v/v), and 1% penicillin-streptomycin, in a 5% CO2 incubator at 37° C.
Since type II diabetes is directly related to the KATP ion channels of beta cells in the pancreas (Tarasov, A. et al., Diabetes., 53(3), pp. S113-S122, 2004), it was tested whether or not the Lithospermum erythrorhizon extract obtained in the above example or the shikonin compounds isolated therefrom blocks the KATP ion channels of beta cells in the pancreas.
The ion current was recorded by a conventional whole cell patch clamp method, using a patch clamp amplifier (EPC-9, Heka Elektronik, Lambrecht, Germany). The measurement electrode was pulled from a borosilicate glass capillary using a puller (DMZ-Universal Puller; Dagan Co., USA). The electrode was selected to have a resistance of 6 to 9 MΩ when a solution was filled in the electrode. A cover glass, to which the cells were adhered, was placed on a microscope, and the extra-cellular fluid was allowed to flow, due to gravity, at a speed of up to 0.5 ml/min. When measuring the KATP electric current, the solution inside the electrode included (in mM): 10 NaCl, 102 KCl, 1 CaCl2, 1 MgCl2, 10 HEPES, 0.1 Na2-ATP, 1 Na2-GTP, and 10 EGTA (pH 7.2). To utilize the voltage-clamp method in taking records, the capacitance and series resistance of the cell membranes were compensated by 80% or higher, and the low-pass filter was set to 1 kHZ during the experiments. To measure the KATP electric current, the cell solution was substituted with 110 mM of a barium solution (mM: 110 BaCl2, 10 HEPES, 10 glucose), after which the membrane potential was fixed at −60 mV, and the resulting introvert current was recorded. The experiment results were stored in a Pentium level IBM computer and analyzed using Pulse/Pulsefit (v8.65) software (Heka Elektronik, Lambrecht, Germany), and all of the experiments were performed at room temperature.
`CC(C)=CCC(OC(=O)C(C)C)C1=CC(=O)c2c(O)ccc(O)c2C1=O` (stereo not shown) [BS, Isobutyryl Shikonin]: the “inhibition of KATP ion channels by shikonin single compounds compared with GBC” value (“inhibition … compared with GBC” for short) is listed as “effectively inhibit KATP ion channels”.

In the case of `CCC(C)C(=O)OC(CC=C(C)C)C1=CC(=O)c2c(O)ccc(O)c2C1=O` (stereo not drawn) [MS, α-methyl-n-butyryl Shikonin], the “inhibition … compared with GBC” value is listed as “effectively inhibit KATP ion channels”.

As for `CC(C)=CCC(OC(=O)CC(C)C)C1=CC(=O)c2c(O)ccc(O)c2C1=O` (stereo not shown) [VS, Isovaleryl Shikonin], the “inhibition … compared with GBC” value is reported as “effectively inhibit KATP ion channels; also recorded: the best in providing the inhibitory effects”.

Consider `CC(C)=CCC(OC(=O)C=C(C)C)C1=CC(=O)c2c(O)ccc(O)c2C1=O` (stereo not drawn) [DS, β. β-dimethylacryl Shikonin], for which the “inhibition … compared with GBC” value is given as “effectively inhibit KATP ion channels; also recorded: the best in providing the inhibitory effects”.
